Measurements published in EP0175291B1, “Novel alpha-D-mannosidase inhibitor” (MICROBIAL CHEMISTRY RESEARCH FOUNDATION, priority 1984, dated 1986).
“Also recorded” adds a separate entry of the source.

Assays:
[1] = system: α-D-mannosidase of the leguminous plant origin; details: qualitative, prior art; cited from earlier work
[2] = molecular target: T1, α-D-mannosidase of the rat epididymis origin (Rattus norvegicus, UniProt Q6P762); assay: α-D-mannosidase inhibitory activity, colorimetric, p-nitrophenyl-α-D-mannopyranoside substrate; type: biochemical; details: qualitative statement
T1 sequence (Q6P762 50-1009): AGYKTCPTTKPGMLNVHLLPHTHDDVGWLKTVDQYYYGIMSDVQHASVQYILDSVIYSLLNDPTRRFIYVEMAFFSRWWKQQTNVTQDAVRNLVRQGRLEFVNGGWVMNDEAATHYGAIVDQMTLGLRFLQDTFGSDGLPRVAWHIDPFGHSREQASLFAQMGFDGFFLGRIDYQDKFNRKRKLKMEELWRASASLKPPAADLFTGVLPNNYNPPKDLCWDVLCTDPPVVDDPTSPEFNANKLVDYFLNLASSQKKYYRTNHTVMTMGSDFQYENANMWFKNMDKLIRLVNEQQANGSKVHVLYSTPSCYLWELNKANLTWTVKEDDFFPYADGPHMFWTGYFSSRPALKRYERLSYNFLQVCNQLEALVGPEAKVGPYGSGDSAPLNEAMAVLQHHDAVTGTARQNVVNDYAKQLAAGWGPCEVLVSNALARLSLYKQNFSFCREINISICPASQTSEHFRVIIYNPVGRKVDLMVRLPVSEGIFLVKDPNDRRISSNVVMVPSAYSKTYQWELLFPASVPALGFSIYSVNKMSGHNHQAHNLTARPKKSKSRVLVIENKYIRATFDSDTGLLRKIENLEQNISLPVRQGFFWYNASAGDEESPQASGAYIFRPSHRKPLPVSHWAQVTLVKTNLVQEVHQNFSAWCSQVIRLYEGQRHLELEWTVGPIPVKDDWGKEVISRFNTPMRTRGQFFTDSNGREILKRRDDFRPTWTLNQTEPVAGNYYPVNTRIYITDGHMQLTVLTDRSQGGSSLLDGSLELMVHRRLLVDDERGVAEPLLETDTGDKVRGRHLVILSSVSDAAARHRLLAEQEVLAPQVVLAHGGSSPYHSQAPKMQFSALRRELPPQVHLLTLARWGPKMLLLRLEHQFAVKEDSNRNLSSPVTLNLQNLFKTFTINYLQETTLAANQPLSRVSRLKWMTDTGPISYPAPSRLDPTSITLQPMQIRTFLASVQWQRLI
Description: Assay of the compounds according to this invention is performed by measuring their α-D-mannosidase inhibitory activity. The activity of α-D-mannosidase is determined by colorimetrically measuring the amount of p-nitrophenol that has been liberated when p-nitrophenyl-α-D-mannopyranoside (Koch-Light Laboratories, England) as a substrate is hydrolyzed with α-D-mannosidase of the rat epididymis origin (a fraction obtained by precipitation with 20 - 80% ammonium sulfate at the Institute of Microbial Chemistry). Details of said procedure are as follows: p-Nitro-phenyl-α-D-mannopyranoside is dissolved in 50% methanol to make a 0.04M solution. To 0.05 ml of the 0.04M substrate solution are added 0.25 ml of a 0.1M acetate buffer (pH 4.5) and 0.15 ml of water or an aqueous solution containing the test compound. The mixture is heated at 37°C for 3 minutes, and 0.05 ml of -D-mannosidase is added. […] The reaction mixture is measured for the absorbance (A) at 400 nm. Separately, the control mixture comprising only water and being free from the aforesaid test compound solution is measured for the absorbance termed (b). The α-D-mannosidase inhibition rate (%) is calculated from the equation (b - a)/b x 100. […]

Compound	inhibition of α-D-mannosidase of the leguminous plant origin, in words [1]	inhibition of α-D-mannosidase of the animal origin (rat epididymides), in words [2]
O[C@H]1[C@H]2[C@H](O)CCCN2C[C@H]1O [Swainsonine]	inhibits	–
C[S+]([O-])C1C(N)C(O)C(O)C1O (stereo not drawn) [mannostatin S-oxide]	–	stronghly inhibit; also recorded: strongly inhibit
CSC1C(N)C(O)C(O)C1O (stereo not drawn) [mannostatin]	–	stronghly inhibit; also recorded: strongly inhibit
